Among the data in patent publication US12583858B2 (Genentech, Inc., priority 2015, dated 2026) are EC50 values, retold here.

T1 sequence (P48775 whole entry): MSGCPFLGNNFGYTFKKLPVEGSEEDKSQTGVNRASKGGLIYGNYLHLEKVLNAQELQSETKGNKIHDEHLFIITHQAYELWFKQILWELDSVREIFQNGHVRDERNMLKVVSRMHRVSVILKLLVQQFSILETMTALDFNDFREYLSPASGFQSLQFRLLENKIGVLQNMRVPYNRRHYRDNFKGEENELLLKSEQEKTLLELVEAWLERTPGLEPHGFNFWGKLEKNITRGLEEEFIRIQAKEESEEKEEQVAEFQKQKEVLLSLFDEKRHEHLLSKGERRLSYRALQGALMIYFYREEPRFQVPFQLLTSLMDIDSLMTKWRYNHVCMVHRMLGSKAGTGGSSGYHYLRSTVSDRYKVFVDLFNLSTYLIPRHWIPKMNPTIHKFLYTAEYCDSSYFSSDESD

The assay concerns the target T1, TDO2 (Homo sapiens, UniProt P48775).
T1 construct: decreased levels of NFK in SW48 cells (high TDO expressing cells)
The assay can be described thus: TDO2 cell assay (NFK GreenScreen, SW48 cells). The class given is cell-based. The conditions noted are these: SW48 cells (high TDO expressing), 200 uM tryptophan, 24 hours; Table 3; read-out: TDO2 Cell Fluor EC50.
What is called EC50 is the midpoint of the concentration-response curve. Regarding `CC(C)(C)OC(=O)N1CC2(CC(C3c4ccccc4-c4cncn43)C2O)C1` (single isomer, unassigned) [Example 41a, tert-butyl 7-hydroxy-6-(5H-imidazo[1,5-b]isoindol-5-yl)-2-azaspiro[3.3]heptane-2-carboxylate], the EC50 was above 25 µM.
`CC(C)(C)OC(=O)N1CC2(CC(C3c4ccccc4-c4cncn43)C2O)C1` (single isomer, unassigned) [Example 41b, tert-butyl 7-hydroxy-6-(5H-imidazo[1,5-b]isoindol-5-yl)-2-azaspiro[3.3]heptane-2-carboxylate]: the EC50 came to 0.8 µM.
For the compound `CC(C)(C)OC(=O)N1CC2(CC(C3c4ccccc4-c4cncn43)C2O)C1` (single isomer, unassigned) [Example 41c, tert-butyl 7-hydroxy-6-(5H-imidazo[1,5-b]isoindol-5-yl)-2-azaspiro[3.3]heptane-2-carboxylate], the EC50 came to 23 µM.
On to `CC(C)(C)OC(=O)N1CC2(CC(C3c4ccccc4-c4cncn43)C2O)C1` (single isomer, unassigned) [Example 41d, tert-butyl 7-hydroxy-6-(5H-imidazo[1,5-b]isoindol-5-yl)-2-azaspiro[3.3]heptane-2-carboxylate], for which the EC50 is 3.2 µM.
As for `CC(C)(C)OC(=O)N1CC2(CC(C3c4ccccc4-c4cncn43)C2O)C1` (single isomer, unassigned) [Example 41e, tert-butyl 7-hydroxy-6-(5H-imidazo[1,5-b]isoindol-5-yl)-2-azaspiro[3.3]heptane-2-carboxylate], the figure is 0.62 µM.
Turning to `CC(C)(C)OC(=O)N1CC2(CC(C3c4ccccc4-c4cncn43)C2O)C1` (single isomer, unassigned) [Example 41f, tert-butyl 7-hydroxy-6-(5H-imidazo[1,5-b]isoindol-5-yl)-2-azaspiro[3.3]heptane-2-carboxylate], the EC50 worked out at 17 µM.
Then `CC(C)(C)OC(=O)N1CC2(CC(C3c4ccccc4-c4cncn43)C2O)C1` (single isomer, unassigned) [Example 41g, tert-butyl 7-hydroxy-6-(5H-imidazo[1,5-b]isoindol-5-yl)-2-azaspiro[3.3]heptane-2-carboxylate], with above 25 µM; and `CC(C)(C)OC(=O)N1CC2(CC(C3c4ccccc4-c4cncn43)C2O)C1` (single isomer, unassigned) [Example 41h, tert-butyl 7-hydroxy-6-(5H-imidazo[1,5-b]isoindol-5-yl)-2-azaspiro[3.3]heptane-2-carboxylate], with 0.75 µM; and `OC1(C2c3ccccc3-c3cncn32)CCC1` (single isomer, unassigned) [Example 47a], with 0.35 µM.
As for `OC1(C2c3ccccc3-c3cncn32)CCC1` (single isomer, unassigned) [Example 47b], the figure is above 25 µM; as for `OCC(O)C1c2ccccc2-c2cncn21` (single isomer, unassigned) [Example 49a, 1-(5H-imidazo[5,1-a]isoindol-5-yl)ethane-1,2-diol], 18 µM.
Then `OCC(O)C1c2ccccc2-c2cncn21` (single isomer, unassigned) [Example 49b, 1-(5H-imidazo[5,1-a]isoindol-5-yl)ethane-1,2-diol], with 19.6 µM; and `OCC(O)C1c2ccccc2-c2cncn21` (single isomer, unassigned) [Example 49c, 1-(5H-imidazo[5,1-a]isoindol-5-yl)ethane-1,2-diol], with above 25 µM.
As to `OCC(O)C1c2ccccc2-c2cncn21` (single isomer, unassigned) [Example 49d, 1-(5H-imidazo[5,1-a]isoindol-5-yl)ethane-1,2-diol], the EC50 worked out at 1.44 µM.
As to `CC(C)C(O)C1c2ccccc2-c2cncn21` (single isomer, unassigned) [Example 51a], the EC50 was above 25 µM.
For `CC(C)C(O)C1c2ccccc2-c2cncn21` (single isomer, unassigned) [Example 51b], the concentration for a half-maximal effect (EC50) is above 25 µM.
Then `CC(C)C(O)C1c2ccccc2-c2cncn21` (single isomer, unassigned) [Example 51c], with 0.11 µM; and `CC(C)C(O)C1c2ccccc2-c2cncn21` (single isomer, unassigned) [Example 51d], with 14 µM; and `OC(C1CC1)C1c2ccccc2-c2cncn21` (single isomer, unassigned) [Example 52a], with 0.24 µM.
Then `OC(C1CC1)C1c2ccccc2-c2cncn21` (single isomer, unassigned) [Example 52b], with 23.7 µM; and `OC(C1CC1)C1c2ccccc2-c2cncn21` (single isomer, unassigned) [Example 52c], with above 25 µM; and `OC(C1CC1)C1c2ccccc2-c2cncn21` (single isomer, unassigned) [Example 52d], with 2 µM.
On to `OC1c2ccnn2CCC1C1c2ccccc2-c2cncn21` (single isomer, unassigned) [Example 56b], for which the EC50 came out at 0.37 µM.
Regarding `OC1c2ccnn2CCC1C1c2ccccc2-c2cncn21` (single isomer, unassigned) [Example 56f], the EC50 came to 3.8 µM.
As for `OC1c2ccnn2CCC1C1c2ccccc2-c2cncn21` (single isomer, unassigned) [Example 56g], the figure is above 25 µM; as for `OC1C(C2c3ccccc3-c3cncn32)CC12CCOCC2` (single isomer, unassigned) [Example 57b], 5 µM.
As for `OC1C(C2c3ccccc3-c3cncn32)CC12CCOCC2` (single isomer, unassigned) [Example 57c], the concentration for a half-maximal effect (EC50) turned out to be 0.4 µM.
Then `OC1C(C2c3ccccc3-c3cncn32)CC12CCOCC2` (single isomer, unassigned) [Example 57d], with above 25 µM.
`OC1C(C2c3ccccc3-c3cncn32)CC12CCOCC2` (single isomer, unassigned) [Example 57e]: the EC50 worked out at 0.077 µM.
As to `OC1C(C2c3ccccc3-c3cncn32)CC12CCOCC2` (single isomer, unassigned) [Example 57f], the EC50 came to 0.73 µM.
Then `OC1C(C2c3ccccc3-c3cncn32)CC12CCOCC2` (single isomer, unassigned) [Example 57g], with 0.21 µM; and `OC1C(C2c3ccccc3-c3cncn32)CC12CCOCC2` (single isomer, unassigned) [Example 57h], with above 25 µM; and `N#CCN1CCC(O)C(C2c3ccccc3-c3cncn32)C1` (single isomer, unassigned) [Example 58a], with 0.36 µM.
As for `N#CCN1CCC(O)C(C2c3ccccc3-c3cncn32)C1` (single isomer, unassigned) [Example 58b], the figure is above 25 µM; as for `N#CCN1CCC(O)C(C2c3ccccc3-c3cncn32)C1` (single isomer, unassigned) [Example 58c], 20 µM; as for `N#CCN1CCC(O)C(C2c3ccccc3-c3cncn32)C1` (single isomer, unassigned) [Example 58d], above 25 µM.
As for `Cc1cc2c(cn1)C(O)C(C1c3ccccc3-c3cncn31)C2` (single isomer, unassigned) [Example 59c], the figure is 1.6 µM.
Take `Cc1cc2c(cn1)C(O)C(C1c3ccccc3-c3cncn31)C2` (single isomer, unassigned) [Example 59d]: the EC50 was above 25 µM.
